US20010012631A1, “Plant clonal lines and plants having elevated secondary metabolite levels” (University of Massachusetts Medical Center, a Massachusetts …, priority 1997, published 2001)
Like-named read-outs stand apart in the source and are kept apart here.

Key:
[1] = tested on: Glucose-6-phosphate dehydrogenase (G-6-PDH); type: cell-based, oregano; details: A2C 50 μM
Method: (§1) These enzymes are involved in synthesis of phenolic secondary metabolites (PAL) and in the pentose phosphate pathway (G-6-PDH).
(§2) One gm fresh weight of leaves were ground to a powder in liquid nitrogen, and homogenized in 0.1 M Tris-HCl buffer (pH 7.4) containing 1 mM phenylmethyl-sulfonyl fluoride (PMSF), 0.1% polyvinylpyrrolidone (PVP, to remove phenolics and polysaccharides) and 1 mM dithiothreitol (DTT). Extracts were centrifuged at 15,000×g for 20 minutes, and supernatants (5 ml) were partially purified through a PD 10 column (Pharmacia, Inc., NJ). Protein was eluted from the column using 5 ml of 0.1 M Tris-HCl, pH 8.5, which is close to the pH optimum of plant glucose-6-phosphate dehydrogenase (pH 8.0-8.2) and PAL (pH 8.8).
Glucose-6-phosphate dehydrogenase activity in the protein extract was measured spectrophotometrically by following the change in absorbance at 340 nm in the presence of saturating amounts of glucose-6-phosphate (2mM) and NADP (5 μM) in 0.1 M Tris-HCl, pH 8.0. One unit of glucose-6-phosphate dehydrogenase was defined as the amount of enzyme causing the reduction of 1 μmol of NADP^+ per minute. Specific activity was expressed as units per milligram of protein.

oregano clonal lines = test: Selection for A2C tolerance: total phenolic content of about 100 oregano clonal lines; type: cell-based; details: small fraction of about 100 oregano lines, 200 μM A2C, 30 days
Method: Total phenolic content can be measured, for example, using Folin-Ciocalteu reagent essentially as described in Chandler and Dodds, Plant Cell Rep. 2:105-108 (1983) and Shetty, K., Ph.D., Thesis, University of Idaho (1989). The tissue is disrupted in 95% ethanol and centrifuged to remove particulate matter. An aliquot of the ethanol supernatant is mixed with an equal volume of Folin-Ciocalteu reagent, and incubated at 25° C. A 5% sodium carbonate can be added to stabilize color development. Absorbance of the solution is measured at 725 nm is a spectrophotometer. A standard curve is developed using various concentrations of gallic acid in 95% ethanol. Absorbance values are converted to mg total phenolics/g fresh weight (FW) tissue from the standard curve.
About 100 oregano clonal lines are initiated as described in Example 1. Lines are maintained on MS medium containing BAP as described in Example 1. At the end of a subculture cycle, 50 shoot propagules of each clonal line are transferred to half-strength hormone-free MS medium containing 200 μM A2C. Propagules are then cultured for 30 days as described in Example 1, and assayed for RA content as described in Example 1. Total phenolic content is measured as described in U.S. application Ser. No. 08/771,241, filed Dec. 20, 1996, incorporated herein by reference.

[2] = tested on: phenylalanine ammonia lyase (PAL); type: cell-based, oregano; details: A2C 50 μM
Method: as §1, §2
Phenylalanine ammonia-lyase (PAL) activity in the protein extract was assayed based on the conversion of L-phenylalanine (6.67 mM) to trans cinnamic acid. The reaction was carried out at 30° C. in borate buffer (33 mM), pH 8.8 with L-phenylalanine as substrate and the change in absorbance at 290 nm was measured. PAL was expressed as nanomoles of trans-cinnamic acid formed per minute per milligram of protein. Protein was determined by the Bradford dye-binding method using bovine serum albumin as a standard.

[3] = tested on: rosemary clonal line R-35; test: RA content of shoot propagules, rosemary clonal line R-35; type: cell-based; details: 30 to 45 days, ± SD
Method: (§3) Samples of Pseudomonas-treated and untreated control shoots from each line were assayed for rosmarinic acid content and proline content. Rosmarinic acid was extracted from 50 mg of fresh shoot tissue using 2 ml of 50% (v/v) methanol and incubating for 1 hour at 55° C. One ml of the methanol extract was diluted 1:18 and the absorbance of the diluted extract was measured at 333 nm in a Genesys spectrophotometer (Spectronic Instruments, Rochester, N.Y.). The concentration of RA in the extract was calculated using an extinction coefficient of ε333=19,000 τmol^−1cm^−1. Values for the concentration of RA for each treatment/clonal line shown in the Tables and Figures of this application are the average of at least 5 separate extracts. Total rosmarinic acid content was expressed as % g/g fresh weight (FW) of tissue.
(§4) Three clonal thyme lines and five rosemary clonal lines were isolated and maintained in culture as described in U.S. application Ser. No. 08/771,241, filed Dec. 20, 1996 and incorporated herein by reference.
(§5) Individual shoot propagules of each clonal line were transferred to half-strength hormone-free MS media supplemented with A2C and cultured for 30 to 45 days. RA content and morphological abnormalities were determined at the end of the culture period as described in Example 1.

oregano clonal line 0-4 = test: Morphological abnormalities / tolerance of cultured shoots, oregano line 0-4; type: cell-based; details: line 0-4 cultured in the presence of 100 μM azetidine-2-carboxylic acid
Method: Pseudomonas tolerance of Pseudomonas-treated shoots was determined by visual observation with a stereomicroscope (Olympus-SZ40, Tokyo, Japan) at a magnification of 34X. Cultured shoots were evaluated for morphological abnormalities, including malformation, necrosis, and chlorophyll deficiency. The response of individual tissue propagules to Pseudomonas contact was similar within each line, i.e., there was little or no variation among tissue propagules within each line.
Shoot tissue from oregano lines 0-4 and 0-5 was also cultured in the presence of A2C for 30 days. Samples of treated and control shoots were then assayed for RA content on a fresh weight basis and for morphological abnormalities.

[4] = tested on: regenerated plants of oregano clone 0-1 and five tolerant clones; test: Field treatment: RA content of leaf tissue of regenerated oregano plants; type: in vivo; details: field plants sprayed with solution of A2C about 50 μm, Nonidet P40, EMC about 0.5% w/v; leaf tissue after 7 days; fresh weight and dry weight basis
Method: (§6) About 100 regenerated plants of oregano clone 0-1, and the five tolerant clones of Example 7 are removed from a greenhouse, and planted outdoors in a field during the spring, and summer growing season. Plantings are carried out using a randomized block design. Plants are fertilized weekly, but are not irrigated. About 7 days before flower emergence, half of the plants of each line are sprayed with an aqueous solution comprising A2C, Nonidet P40™, and EMC prepared from strain F. A2C is present at about 50 μm, and EMC is present at about 0.5% w/v. Each plant receives about 1 to 2 ml on the upper surface of the leaves. The remaining control plants are treated by spraying an aqueous solution that contains no A2C and no EMC. Spraying is carried out such that there is little or no carryover to adjacent plants.
(§7) After 7 days, leaf tissue from A2C-treated and control plants is harvested, and analyzed for total phenolic content, and RA content as described in Example 7. […] The plant-to-plant variation among A2C-treated plants of each line is about 5% to about 15%.

rosemary clonal line R-7 = test: RA content of shoot propagules, rosemary clonal line R-7; type: cell-based; details: 30 to 45 days, ± SD
Method: as §3, §4, §5

thyme clonal line M-3 = test: RA content of shoot propagules, thyme clonal line M-3; type: cell-based; details: 30 to 45 days
Method: as §3, §4, §5

rosemary clonal line R-1 = test: RA content of shoot propagules, rosemary clonal line R-1; type: cell-based; details: 30 to 45 days
Method: as §3, §4, §5

oregano clonal line OM-8 = type: cell-based; details: 30 days
Method: as §3
(§8) Oregano lines 0-1, 0-4, and 0-5 of Examples 1 and 2 were tested again for cross-tolerance to A2C. Clonal lines OM-1, and OM-8 of Example 1 were also tested for cross-tolerance to A2C. Line OM-8 was previously shown to be sensitive to Pseudomonas strain F, whereas line OM-1 was tolerant of Pseudomonas strain F. Lines were maintained on MS medium containing BAP as described in Example 1.
(§9) Individual shoot tissue propagules of each clonal line were transferred to half strength hormone-free MS medium supplement with A2C. RA content and morphological abnormalities were determined as described in Example 1.

oregano clonal line OM-1 = type: cell-based; details: 30 days, ± SD
Method: as §3, §8, §9

[5] = tested on: regenerated plants of oregano clone 0-1 and five tolerant clones; test: Field treatment: total phenolic content of leaf tissue of regenerated oregano plants; type: in vivo; details: field plants sprayed with solution of A2C about 50 μm, Nonidet P40, EMC about 0.5% w/v; leaf tissue after 7 days; fresh weight and dry weight basis
Method: as §6, §7

O=C(O)C1CCN1 (centres unmarked) [A2C, azetidine-2-carboxylic acid]
G-6-PDH specific activity ([1]; 10 days of culture treatment): 1.47 μmoles NADPH/min/mg protein | G-6-PDH specific activity ([1]; 25 days of culture treatment): 1.23 μmoles NADPH/min/mg protein | increase in total phenolic content on a fresh weight basis vs tissue cultured in the absence of A2C (oregano clonal lines): at least 2 fold | PAL specific activity ([2]; 10 days of culture treatment): 2.83 nanomoles cinnamate/min/mg protein | PAL specific activity ([2]; 25 days of culture treatment): 2.64 nanomoles cinnamate/min/mg protein | RA Levels ([3]; rosemary R-35, A2C 100 μM): 12.1 ± 1.4 mg/g FW | RA Levels ([3]; rosemary R-35, A2C 200 μM): 10.9 ± 0.9 mg/g FW | morphological abnormalities (oregano clonal line 0-4): no morphological abnormalities | RA vs control tissue [4]: at least 2 fold | RA Levels (rosemary clonal line R-7; rosemary R-7, A2C 100 μM): 6.8 ± 1.1 mg/g FW | RA Levels (rosemary clonal line R-7; rosemary R-7, A2C 200 μM): 7.9 ± 2.0 mg/g FW | RA Levels (thyme clonal line M-3; thyme M-3, A2C 100 μM, ± SD): 2.4 ± 0.5 mg/g FW | RA Levels (thyme clonal line M-3; thyme M-3, A2C 200 μM): inhibited | RA Levels (rosemary clonal line R-1; rosemary R-1, A2C 100 μM, ± SD): 4.9 ± 0.5 mg/g FW | RA Levels (rosemary clonal line R-1; rosemary R-1, A2C 200 μM): inhibited | RA Levels (oregano clonal line OM-8; line OM-8, A2C 100 μM, ± SD): 2.9 ± 0.3 mg/g FW | RA Levels (oregano clonal line OM-8; line OM-8, A2C 200 μM): inhibited | RA Levels (oregano clonal line OM-1; line OM-1, A2C 100 μM): 7.1 ± 0.7 mg/g FW | RA Levels (oregano clonal line OM-1; line OM-1, A2C 200 μM): 6.4 ± 1.2 mg/g FW | total phenolics vs control tissue [5]: at least 2 fold
